Data on ten compounds can be found in US5922681A, “Endothelin antagonists” (Warner-Lambert Company, priority 1992, dated 1999).

Non-standard residues stand in square brackets, D forms with d. Residues, ends and D or L forms follow the SMILES beside them. No end group written: not given here.

The target in assay [1] is T1, ETA (rabbit renal artery vascular smooth muscle cells) (Oryctolagus cuniculus, UniProt A5A8K3).
T1 construct: The cells used were rabbit renal artery vascular smooth muscle cells; endogenous in cells; host or cells: rabbit renal artery vascular smooth muscle cells
T1 sequence (A5A8K3 21-427): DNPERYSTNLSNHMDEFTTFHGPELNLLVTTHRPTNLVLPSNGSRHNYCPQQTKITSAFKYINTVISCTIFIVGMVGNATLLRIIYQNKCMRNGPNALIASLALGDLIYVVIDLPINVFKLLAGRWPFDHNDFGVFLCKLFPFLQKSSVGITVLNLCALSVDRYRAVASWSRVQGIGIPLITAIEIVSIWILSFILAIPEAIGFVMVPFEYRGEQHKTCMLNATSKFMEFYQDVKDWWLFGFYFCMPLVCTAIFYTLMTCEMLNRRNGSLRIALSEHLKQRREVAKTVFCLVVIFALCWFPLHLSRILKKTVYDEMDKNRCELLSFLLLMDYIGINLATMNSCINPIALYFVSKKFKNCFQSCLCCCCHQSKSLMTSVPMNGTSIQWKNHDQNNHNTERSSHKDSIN
Put plainly: Endothelin receptor binding assay-A (ERBA-A), intact cell binding of [125I]-ET-1. The following applies: rabbit renal artery vascular smooth muscle cells, [125I]-ET-1 25 pM. How it is done: (§1) The compounds of Formula I are valuable antagonists of endothelin. […] Compounds of Formula I were tested for their ability to inhibit [^125 I]-ET-1([^125 I]-Endothelin-1) binding in a receptor assay according to the following procedures Doherty, A. M., et al, J. Cardiovascul. Pharmacol. 17(Suppl 7):S59-61 (1991) and Doherty, A. M., et al, Bio. Org. Med. Chem. Lett. in press (1992):
ENDOTHELIN RECEPTOR BINDING ASSAY-A (ERBA-A) INTACT CELL BINDING OF [^125 I]-ET-1
The cells used were rabbit renal artery vascular smooth muscle cells grown in a 48-well dish (1 cm^2) (confluent cells).
The growth media was Dulbeccos Modified Eagles/Ham's F12 which contained 10% fetal bovine serum and antibiotics (penicillin/streptomycin/fungizone).
The assay buffer was a medium 199 containing Hanks salts and 25 mM Hepes buffer (Gibco 380-2350AJ), supplemented with penicillin/streptomycin/fungizone (0.5%) and bovine serum albumin (1 mg/mL).
Amersham radioiodinated endothelin-1 [^125 I]-ET-1 was used at final concentration of 20,000 cpm/0.25 mL (25 pM).
Second, remove the assay buffers, place the dish on ice, and add 150 μL of cold assay buffer described above to each well. Third, add 50 μL each of cold [^125 I]-ET-1 and competing ligand to the solution (at the same time if possible). Next, place dish in a 37° C. water bath for about 2 hours and gently agitate the dish every 15 minutes. Discard the radioactive incubation mixture in the sink and wash wells three times with […] of cold phosphate buffered saline. Last, add […] of 0.25 molar sodium hydroxide, agitate for 1 hour on a rotator, and then transfer the sodium hydroxide extract to gamma counting tubes and count the radioactivity.

Assay [2] deals with endothelin receptor (Rat Heart). Put plainly: [125I]-ET-1 receptor binding, Rat Heart. How it is done:
(§2) The compounds of Formula I are valuable antagonists of endothelin. […] Compounds of Formula I were tested for their ability to inhibit [^125 I]-ET-1([^125 I]-Endothelin-1) binding in a receptor assay according to the following procedures Doherty, A. M., et al, J. Cardiovascul. Pharmacol. 17(Suppl 7):S59-61 (1991) and Doherty, A. M., et al, Bio. Org.

Assay [3] addresses endothelin receptor (Human Placenta). Nature of the assay: [125I]-ET-1 receptor binding, Human Placenta. As for the experimental part: as §2
Assay [4] concerns the target T2, ETB (rat cerebellar membranes) (Rattus norvegicus, UniProt P21451).
T2 construct: thaw one aliquot of frozen rat cerebellar membranes; from tissue; host or cells: rat cerebellar membranes
T2 sequence (P21451 27-442): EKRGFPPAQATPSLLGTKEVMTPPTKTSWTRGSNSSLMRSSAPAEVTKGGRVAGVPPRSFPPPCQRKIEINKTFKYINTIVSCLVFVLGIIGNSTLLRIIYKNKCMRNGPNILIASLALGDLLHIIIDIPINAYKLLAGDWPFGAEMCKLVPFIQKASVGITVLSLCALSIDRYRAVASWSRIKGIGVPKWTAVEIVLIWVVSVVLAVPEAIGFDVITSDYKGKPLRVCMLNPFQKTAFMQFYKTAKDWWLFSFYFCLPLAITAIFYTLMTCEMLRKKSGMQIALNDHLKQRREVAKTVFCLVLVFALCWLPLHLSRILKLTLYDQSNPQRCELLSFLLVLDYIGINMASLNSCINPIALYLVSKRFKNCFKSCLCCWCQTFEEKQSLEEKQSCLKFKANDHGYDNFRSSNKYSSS
Nature of the assay: Endothelin receptor binding assay-B (ERBA-B), [125I]-ET-1 binding in rat cerebellar membranes. The note with it: rat cerebellar membranes, [125I]-ET-1 25 pM. As for the experimental part:
as §1
ENDOTHELIN RECEPTOR BINDING ASSAY-B (ERBA-B) [^125 I]-ET-1 BINDING IN RAT CEREBELLAR MEMBRANES
The tissue is made up of 20 mM tris(hydroxy-methyl)aminomethane hydrochloride (Trizma) buffer, 2 mM ethylenediaminetetra acetate, 100 μM phenylmethylsulfonyl fluoride.
First, thaw one aliquot of frozen rat cerebellar membranes (2 mg protein in 0.5 mL). Next, add 0.5 mL membrane aliquot to 4.5 mL cold tissue buffer, polytron at 7,500 revolutions per minute for 10 seconds. Finally, dilute tissue suspension 1/100 (0.1 mL suspension+9.9 mL tissue buffer), polytron again, and place ice.
Medium 199 with Hank's salts plus 25 mM Hepes+1 mg/mL bovine serum albumin.
Amersham [^125 I]-ET-1 (aliquots of 2×10^6 cpm per […] aliquot of [^125 I]-ET-1 with 5.2 mL dilution buffer, place on ice until use (final concentration will be 20,000 cpm per tube, or 25 pM).
Add 50 μL each of cold [^125 ]-ET-1 and competing ligand to tubes on ice. Mix in 150 μL of tissue to each tube, vortex briefly, then tap to force all liquids to bottom (total assay volume=250 μL). Then place the tubes in a 37° C. water bath for 2 hours.
Add 2.5 mL cold wash buffer (50 mM Trizma buffer) to each tube, filter, and then wash tube with additional 2.5 mL wash buffer and add to filter. Finally, wash filters with an additional 2.5 mL of cold wash buffer.
Count filters for radioactivity in gamma counter.

Assay [5] has as its system endothelin-stimulated arachidonic acid release in cultured vascular smooth muscle cells. Nature of the assay: AAR assay for antagonist activity. In kind it is cell-based, rabbit. The following applies: ET-1 0.3 nM. How it is done:
AAR Assay for Antagonist Activity
Antagonist activity is measured by the ability of added compounds to reduce endothelin-stimulated arachidonic acid release in cultured vascular smooth muscle cells as arachidonic acid release (AAR). [^3 H] Arachidonic Acid Loading Media (LM) is DME/F12+0.5% FCS×0.25 mCi/mL [^3 H] arachidonic acid (Amersham). Confluent monolayers of cultured rabbit renal artery vascular smooth muscle cells were incubated in 0.5 mL of the LM over 18 hours, at 37° C., in 5% CO2. The LM was aspirated and the cells were washed once with the assay buffer (Hank's BSS+10 mM HEPES+fatty acid-free BSA (1 mg/mL), and incubated for 5 minutes with 1 mL of the prewarmed assay buffer. This solution was aspirated, followed by an additional 1 mL of prewarmed assay buffer, and further incubated for another 5 minutes. A final 5-minute incubation was carried out in a similar manner. […] This solution was then collected, […] of scintillation cocktail was added, and the amount of [^3 H] arachidonic acid was determined in a liquid scintillation counter.

In assay [6] the test system is ET-1-induced vasoconstriction. The note with it: isolated porcine coronary arteries; cited from earlier work.
Assay [7] relates to ETA receptor over the ETB subtype. The following applies: cited from earlier work.
Assay [8] has as its system endothelin-stimulated constriction in the rabbit femoral renal (ETA), and pulmonary arteries (ETB). The note with it: cited from earlier work.
The test system of assay [9] is endothelin-induced arachidonic acid release in vascular smooth muscle cells (ETA). The note with it: cited from earlier work.
Assay [10] concerns ETB. The note with it: isolated, endothelium-intact porcine pulmonary arteries; cited from earlier work.
In assay [11] the test system is ET receptor. The note with it: cited from earlier work.
The test system of assay [12] is ET-1-induced arrythmia. The following applies: rats; cited from earlier work.
The subject of assay [13] is pressor response to ET-1. The following applies: IV bolus 1 mg/kg; cited from earlier work.
The test system of assay [14] is vasoconstriction of the basilar artery. The note with it: canine subarachnoid hemorrhage, intracisternal 0.1 mg; cited from earlier work.
Assay [15] relates to ET-1-induced vasoconstriction. The note with it: isolated rabbit aorta; cited from earlier work.

Broadly, the IC50 is the concentration that inhibits the measured activity by half. A low value points to higher potency.

In the case of `C[C@H]1CCCC[C@@H]1OC(=O)N[C@](C)(Cc1c[nH]c2ccccc12)C(=O)N[C@H](CC(=O)O)Cc1ccccc1` (relative stereo) [Compound 1, (1S-trans)-N-[α-methyl-N-[[(2-methyl-cyclohexyl)-oxy]carbonyl]-D-tryptophyl]-L-3-(phenylmethyl)-β-alanine], the IC50 in assay [1] worked out at 46 µM; in [2] it was 9.25 µM; in assay [3], 0.72 µM; in assay [4], 1500 nM.
Regarding `C[C@@](Cc1c[nH]c2ccccc12)(NC(=O)OC1C2CC3CC(C2)CC1C3)C(=O)N[C@H](CC(=O)O)Cc1ccccc1` (relative stereo) [Compound 4, [S-(R*,R*)]-β-[[3-(1H-indol-3-yl)-2-methyl-1-oxo-2-[[(tricyclo[3.3.1.1^3,7]dec-2-yloxy)carbonyl]-amino]propyl]amino]benzenebutanoic acid], the “AAR IC50 (μM) (Antag) % inhib at 10 μM” value in assay [5] was found to be 62.4%. The 50% inhibitory concentration (IC50) in assay [2] turned out to be 47.3 µM; in assay [3], 58.3 µM.
For the compound `CC(C)C[C@@H]1NC(=O)[C@@H](C(C)C)NC(=O)[C@@H]2CCCN2C(=O)[C@@H](CC(=O)O)NC(=O)[C@@H](Cc2c[nH]c3ccccc23)NC1=O` [BQ-123] (cyclo(L[dW][dD]P[dV])), the “Antagonism of ET-1-induced vasoconstriction” value in [6] is given as “antagonize”.
As to “Ac-(β-phenyl)D-Phe-L-Leu-L-Asp-L-lle-L-lle-L-Trp trifluoroacetate [PD 142893]”, in assay [7], the “Binding selectivity for the ETA receptor over the ETB subtype” value is reported as “tenfold”. For the same compound, the “Antagonism of endothelin-stimulated constriction” value in assay [8] is on record as “antagonizes”. Further, in assay [9], the “Antagonism of endothelin-induced arachidonic acid release” value was “functional antagonist”.
In the case of “ET[1,3,11,15-Ala]: linear ET analog, reported selective ETB agonist (ASASSLMDKEAVYFAHLDIIW; Endothelin-1; UniProt P05305 53-73, looked up, variant C1A C3A C11A C15A)”, the Vasorelaxation entry in [10] was “caused vasorelaxation”.
With “ET[1-20]: ET-1 lacking the C-terminal amino acid (Trp-21) (CSCSSLMDKECVYFCHLDII; ends and bridges not checked; cysteine pairing not given here; UniProt P05305 53-72, looked up, fragment)”, the “Functional / vasoconstrictor activity, fold less” value in assay [11] is “approximately 1000 fold”.
For the compound ET[6-21, 1,3,11,15-Ala], the Vasorelaxation result in assay [10] is “caused vasorelaxation”.
ET[8-21,11,15-Ala]: the Vasorelaxation entry in [10] is “caused vasorelaxation”.
With FR 139317, in [12], the ET-1-induced arrythmia result is reported as “suppressed”. Further, in [13], the “Initial depressor response to ET-1” value was “no effect” and the “Pressor response to ET-1” value is listed as “completely inhibited”. Also, in assay [14], the “Vasoconstriction of the basilar artery after 7 days” value is recorded as “significantly inhibited”. Besides, in [15], the “pA2, inhibition of ET-1-induced vasoconstriction” value is 7.2.
Take “N-acetyl-ET[10-21]: truncated ET analog, reported selective ETB agonist (Ac-ECVYFCHLDIIW; cysteine pairing not given here; UniProt P05305 62-73, looked up, fragment)”: the Vasorelaxation entry in assay [10] is recorded as “caused vasorelaxation”.
